Reference: patent US6875760B2 (Novo Nordisk A/S, priority 1999, dated 2005)

Molecular target: T1, human glucagon receptor (Homo sapiens, UniProt P47871)
T1 construct: expressed in transfected cells; host or cells: BHK (baby hamster kidney) cells
Assay: Glucagon Binding Assay (III)
Settings: BHK cell membranes, WGA SPA beads, 125I-glucagon; read-out: Glu Bd Assay (III) IC50
Outline: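 Membranes from BHK cells transfected with the human receptor, prepared at 4 °C, were used in a WGA-bead scintillation proximity binding format. Plates were shaken for 4 hours, left to settle 8–48 hours and then counted. Non-specific binding was defined with 500 nM glucagon.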

T1 sequence (P47871 26-477): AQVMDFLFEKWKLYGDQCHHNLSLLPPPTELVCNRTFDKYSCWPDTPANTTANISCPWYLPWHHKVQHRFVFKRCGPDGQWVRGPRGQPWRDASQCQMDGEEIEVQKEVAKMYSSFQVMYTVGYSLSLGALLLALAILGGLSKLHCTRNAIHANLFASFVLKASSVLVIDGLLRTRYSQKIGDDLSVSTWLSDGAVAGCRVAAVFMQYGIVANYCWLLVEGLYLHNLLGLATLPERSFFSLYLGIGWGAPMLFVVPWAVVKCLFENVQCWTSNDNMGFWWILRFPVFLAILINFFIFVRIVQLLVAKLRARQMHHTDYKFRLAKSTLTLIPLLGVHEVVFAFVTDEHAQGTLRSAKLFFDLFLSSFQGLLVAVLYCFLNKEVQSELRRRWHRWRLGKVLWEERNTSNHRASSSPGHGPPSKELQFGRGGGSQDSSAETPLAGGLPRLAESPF

Structure (SMILES) | IC50 [nM]
CC(C)(C)C1CCC(N(Cc2ccc(C(=O)Nc3nn[nH]n3)cc2)C(=O)Cc2ccc(-c3ccccc3)cc2)CC1 (centres unmarked) [Example 547, 4-{[(2-Biphenyl-4-ylacetyl)-(4-tert-butylcyclohexyl)amino]methyl}-N-(2H-tetrazol-5-yl)benzamide] | 88
CC(Oc1cccc(Cl)c1)C(=O)N(Cc1ccc(C(=O)Nc2nn[nH]n2)cc1)C1CCC(C(C)(C)C)CC1 (centres unmarked) [Example 548, 4-({(4-tert-Butylcyclohexyl)-[2-(3-chlorophenoxy)propionyl]amino}methyl)-N-(2H-tetrazol-5-yl)benzamide] | 309
CC(C)(C)C1CCC(N(Cc2ccc(C(=O)Nc3nn[nH]n3)cc2)C(=O)/C=C/c2ccc(Cl)cc2)CC1 (centres unmarked) [Example 549, 4-({(4-tert-Butylcyclohexyl)-[3-(4-chlorophenyl)acroloyl]amino}methyl)-N-(2H-tetrazol-5-yl)benzamide] | 55
CC(C(=O)N(Cc1ccc(C(=O)Nc2nn[nH]n2)cc1)C1CCC(C(C)(C)C)CC1)c1ccccc1 (centres unmarked) [Example 550, 4-{[(4-tert-Butylcyclohexyl)-(2-Phenylpropionyl)amino]methyl}-N-(2H-tetrazol-5-yl)benzamide] | 381
CC(C)(C)C1CCC(N(Cc2ccc(C(=O)Nc3nn[nH]n3)cc2)C(=O)/C=C/c2cccc(Cl)c2)CC1 (centres unmarked) [Example 551, 4-({(4-tert-Butylcyclohexyl)-[3-(3-chlorophenyl)acroloyl]amino}methyl)-N-(2H-tetrazol-5-yl)benzamide] | 136
CC(C)(C)C1CCC(N(Cc2ccc(C(=O)Nc3nn[nH]n3)cc2)C(=O)/C=C/c2c(Cl)cccc2Cl)CC1 (centres unmarked) [Example 552, 4-({(4-tert-Butylcyclohexyl)-[3-(2,6-dichlorophenyl)acryloyl]amino}methyl)-N-(2H-tetrazol-5-yl)benzamide] | 133
CC(Oc1ccc(OC(F)(F)F)cc1)C(=O)N(Cc1ccc(C(=O)Nc2nn[nH]n2)cc1)c1ccc(N2CCCCC2)cc1 (centres unmarked) [Example 554, 4-({(4-Piperidin-1-ylphenyl)-[2-(4-trifluoromethoxyphenoxy)propionyl]amino}methyl)-N-(2H-tetrazol-5-yl)benzamide] | 788
O=C(Nc1nn[nH]n1)c1ccc(CN(C(=O)/C=C/c2ccccc2Cl)c2ccc(N3CCCCC3)cc2)cc1 [Example 555, 4-{[[3-(2-Chlorophenyl)acryloyl]-(4-piperidin-1-ylphenyl)amino]methyl}-N-(2H-tetrazol-5-yl)benzamide] | 604
O=C(O)CCNC(=O)c1ccc(CN(CC(c2ccccc2)c2ccccc2)C(=O)Cc2cccc(OC(F)(F)F)c2)cc1 [Example 556] | 660
CC(C)(C)C1CCC(N(Cc2ccc(C(=O)Nc3nn[nH]n3)cc2)C(=O)c2cc3cc(OC(F)(F)F)ccc3[nH]2)CC1 (centres unmarked) [Example 557, 5-Trifluoromethoxy-1H-indole-2-carboxylic acid (4-tert-butylcyclohexyl)-[4-(2H-tetrazol-5-ylcarbamoyl)benzyl]amide] | 266
O=C(Nc1nn[nH]n1)c1ccc(CN(C(=O)c2cc3cc(OC(F)(F)F)ccc3[nH]2)c2ccc(C3CCCCC3)cc2)cc1 [Example 558, 5-Trifluoromethoxy-1H-indole-2-carboxylic acid (4-cyclohexylphenyl)-[4-(2H-tetrazol-5-ylcarbamoyl)benzyl]amide] | 1060
CC(C)(C)c1ccc(N(Cc2ccc(C(=O)Nc3nn[nH]n3)cc2)C(=O)c2cc3cc(OC(F)(F)F)ccc3[nH]2)cc1 [Example 559, 5-Trifluoromethoxy-1H-indole-2-carboxylic acid (4-tert-butylphenyl)-[4-(2H-tetrazol-5-ylcarbamoyl)benzyl]amide] | 1090
O=C(O)CCNC(=O)c1ccc(CN(C(=O)c2cc(-c3ccc(Cl)cc3)cs2)c2ccc(C3CCCCC3)cc2)cc1 [Example 560, 3-(4-{[[4-(4-Chlorophenyl)thiophene-2-carbonyl]-(4-cyclohexylphenyl)amino]methyl}benzoylamino)propionic acid] | 1550
O=C(O)CCNC(=O)c1ccc(CN(C(=O)c2cc3cc(Cl)ccc3o2)c2ccc(C3CCCCC3)cc2)cc1 [Example 561, 3-(4-{[(5-Chlorobenzofuran-2-carbonyl)-(4-cyclohexylphenyl)amino]methyl}benzoylamino)propionic acid] | 372
CC(C)(C)C1CCC(N(Cc2ccc(C(=O)NCCC(=O)O)cc2)C(=O)c2cc3cc(Cl)ccc3o2)CC1 (centres unmarked) [Example 562, 3-(4-{[(4-tert-Butylcyclohexyl)-(5-chlorobenzofuran-2-carbonyl)amino]methyl}benzoylamino)propionic acid] | 146
O=C(O)CCNC(=O)c1ccc(CN(CC(c2ccccc2)c2ccccc2)C(=O)c2cc3cc(Cl)ccc3o2)cc1 [Example 563, 3-(4-{[(5-Chlorobenzofuran-2-carbonyl)-(2,2-diphenylethyl)amino]methyl}benzoylamino)propionic acid] | 407

Structure (SMILES) | IC50 [nM]
CC(C)(C)C1CCC(N(Cc2ccc(C(=O)Nc3nn[nH]n3)cc2)C(=O)c2cc(-c3ccc(Cl)cc3)cs2)CC1 (centres unmarked) [Example 564, 4-(4-Chlorophenyl)thiophene-2-carboxylic acid (4-tert-butylcyclohexyl)-[4-(2H-tetrazol-5-ylcarbamoyl)benzyl]amide] | 98
O=C(Nc1nn[nH]n1)c1ccc(CN(C(=O)c2cc(-c3ccc(Cl)cc3)cs2)c2ccc(C3CCCCC3)cc2)cc1 [Example 565, 4-(4-Chlorophenyl)thiophene-2-carboxylic acid (4-cyclohexylphenyl)-[4-(2H-tetrazol-5-ylcarbamoyl)benzyl]amide] | 948
O=C(Nc1nn[nH]n1)c1ccc(CN(CC(c2ccccc2)c2ccccc2)C(=O)c2cc(-c3ccc(Cl)cc3)cs2)cc1 [Example 566, 4-(4-Chlorophenyl)thiophene-2-carboxylic acid (2,2-diphenyl-ethyl)-[4-(2H-tetrazol-5-ylcarbamoyl)benzyl]amide] | 855
O=C(Nc1nn[nH]n1)c1ccc(CN(C(=O)Nc2cccc(C(F)(F)F)c2)c2ccc(C3CCCCC3)cc2)cc1 [Example 567, 4-[1-(4-Cyclohexylphenyl)-3-(3-trifluoromethylphenyl)ureidomethyl]-N-(2H-tetrazol-5-yl)benzamide] | 5
O=C(Nc1nn[nH]n1)c1ccc(CN(C(=O)Nc2ccc(OC(F)(F)F)c(CO)c2)c2ccc(C3CCCCC3)cc2)cc1 [Example 568] | 13
Cc1ccc(NC(=O)N(Cc2ccc(C(=O)NCCS(=O)(=O)O)cc2)c2ccc(C(C)(C)C)cc2)cc1S(C)(=O)=O [Example 569, 2-{4-[1-(4-tert-Butylphenyl)-3-(3-methylsulfonyl-4-methylphenyl)ureidomethyl]-benzoylamino}ethanesulfonic acid] | 1770
CC(C)(C)[C@H]1CC[C@H](N(Cc2ccc(C(=O)Nc3nn[nH]n3)s2)C(=O)Nc2ccc(OC(F)(F)F)cc2)CC1 [Example 578, 5-[1-(trans-4-tert-Butylcyclohexyl)-3-(4-trifluoromethoxyphenyl)ureidomethyl]thiophene-2-carboxylic acid (2H-tetrazol-5-yl)amide] | 226
N#Cc1ccc(NC(=O)N(Cc2ccc(C(=O)Nc3nn[nH]n3)cc2)c2ccc(C3=CCCCC3)cc2)cc1C(F)(F)F [Example 599, 4-[3-(4-Cyano-3-trifluoromethylphenyl)-1-(4-cyclohex-1-enylphenyl)ureidomethyl]-N-(2H-tetrazol-5-yl)benzamide] | 12
O=C(Nc1nn[nH]n1)c1ccc(CN(C(=O)Nc2ccc(F)c(C(F)(F)F)c2)c2ccc(C3CCCCC3)cc2)cc1 [Example 600, 4-[1-(4-Cyclohexylphenyl)-3-(4-fluoro-3-trifluoromethylihenyl)ureidomethyl]-N-(2H-tetrazol-5-yl)benzamide] | 9
O=C(Nc1nn[nH]n1)c1ccc(CN(C(=O)Nc2ccc(Br)c(C(F)(F)F)c2)c2ccc(C3=CCCCC3)cc2)cc1 [Example 601, 4-[3-(4-Bromo-3-trifluoromethylphenyl)-1-(4-cyclohex-1-enylphenyl)ureidomethyl]-N-(2H-tetrazol-5-yl)benzamide] | 17
COc1cc(NC(=O)N(Cc2ccc(C(=O)Nc3nn[nH]n3)cc2)C2CCC(C(C)(C)C)CC2)cc(C(F)(F)F)c1 (centres unmarked) [Example 602, 4-[1-(4-tert-Butylcyclohexyl)-3-(3-methoxy-5-trifluoromethylphenyl)ureidomethyl]-N-(2H-tetrazol-5-yl)benzamide] | 26
CC(C)(C)[C@H]1CC[C@@H](N(Cc2ccc(C(=O)Nc3nn[nH]n3)cc2)C(=O)Nc2cc(C(F)(F)F)cc(C(F)(F)F)c2)CC1 [Example 603, 4-[3-(3,5-Bis(trifluoromethyl)phenyl)-1-(cis-4-tert-butylcyclohexyl)ureidomethyl]-N-(2H-tetrazol-5-yl)benzamide] | 26
O=C(Nc1nn[nH]n1)c1ccc(CN(C(=O)Nc2ccc(OC(F)(F)F)cc2)C2CCC(C3CC3)CC2)cc1 (centres unmarked) [Example 604, 4-[1-(4-Cyclopropylcyclohexyl)-3-(4-trifluoromethoxyphenyl)ureidomethyl]-N-(2H-tetrazol-5-yl)benzamide] | 222
O=C(O)CCNC(=O)c1ccc(CN(C(=O)Nc2cc(C(F)(F)F)cc(C(F)(F)F)c2)C2CCC3(CCCCC3)CC2)cc1 [Example 614, 3-{4-[3-(3,5-Bis(trifluoromethyl)phenyl)-1-spiro[5.5]undec-3-ylureidomethyl]benzoylamino}propionic acid] | 129
CC(C)(C)c1ccc(N(Cc2ccc(C(=O)Nc3nn[nH]n3)cc2)C(=O)Nc2nc3ccc(OC(F)(F)F)cc3s2)cc1 [Example 615, 4-[1-(4-tert-Butylphenyl)-3-(6-trifluoromethoxy-benzothiazol-2-yl)ureidomethyl]-N-(2H-tetra-5-yl)benzamide] | 105
CS(=O)(=O)c1ccc2nc(NC(=O)N(Cc3ccc(C(=O)Nc4nn[nH]n4)cc3)c3ccc(C4CCCCC4)cc3)sc2c1 [Example 616, 4-[1-(4-Cyclohexylphenyl)-3-(6-methylsulfonylbenzothiazol-2-yl)ureidomethyl]-N-(2H-tetrazol-5-yl)benzamide] | 745
